Consider nine compounds from patent US20240251792A1, “WEED CONTROL METHOD” (SYNGENTA CROP PROTECTION AG, priority 2021, published 2024).

Common to all, as to format: in vivo
The subject of one test is SETFA. The test is described as follows: Pre-emergence biological efficacy (Table 3). The conditions noted are these: Setaria faberi, 312 h, 1000 g/ha, after 13 days, read-out: evaluation (100=total damage to plant; 0=no damage to plant). Summed up: (§1)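 Pre-emergence spray applied one day post-sowing; aqueous solution from 50 g/l AMA-based formulation in 0.2% Genapol X080. Evaluation at 13 days, 0 = no damage, 100 = total damage.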

In another test the test system is SOLNI. As to the kind of experiment: Pre-emergence biological efficacy (Table 3). The conditions noted are these: 1000 g/ha, after 13 days. The method, boiled down: as §1
A further test concerns LOLPE. As to the kind of experiment: Pre-emergence biological efficacy (Table 3). The conditions noted are these: 1000 g/ha, after 13 days. Summed up: as §1
The next test concerns AMARE. The test is described as follows: Pre-emergence biological efficacy (Table 3). The conditions noted are these: Amaranthus retroflexus, 312 h, 1000 g/ha, after 13 days, read-out: evaluation (100=total damage to plant; 0=no damage to plant). The method, boiled down:
as §1

The subject of the next test is ECHCG. As to the kind of experiment: Pre-emergence biological efficacy (Table 3). The conditions noted are these: Echinochloa crus-galli, 312 h, 1000 g/ha, after 13 days, read-out: evaluation (100=total damage to plant; 0=no damage to plant). Summed up:
as §1

For a further test, the system named is IPOHE. The test is described as follows: Pre-emergence biological efficacy (Table 3). The conditions noted are these: Ipomoea hederacea, 312 h, 1000 g/ha, after 13 days, read-out: evaluation (100=total damage to plant; 0=no damage to plant). The method, boiled down:
as §1

For a further test, the system named is weeds and/or crops. As to the kind of experiment: Post-emergence biological efficacy (Table 4). The conditions noted are these: 1000 g/ha, evaluated after 13 days; for pest or weed control at 1000 g/ha: 312 h. Summed up:
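Scores are visual damage (0 = none, 100 = total), read 13 days after treatment at 24/18 °C with 15 h light. Plants had been sown in standard soil and grown 14 days before a spray of compound in F50/acetone, diluted with 0.2% Genapol X080.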

The next test has as its system ZEAMX. The test is described as follows: Pre-emergence biological efficacy (Table 3). The conditions noted are these: 312 h, 1000 g/ha, after 13 days, read-out: evaluation (100=total damage to plant; 0=no damage to plant). Summed up: as §1
The test system of the next test is AMAPA. The test is described as follows: Pre-emergence biological efficacy (Table 3). The conditions noted are these: 312 h, 1000 g/ha, after 13 days, read-out: evaluation (100=total damage to plant; 0=no damage to plant). Summed up:
as §1

Where [1] appears, read: Amaranthus retroflexus, AMARE, read-out: damage to plant AMARE (100=total damage; 0=no damage).
[2] abbreviates: Echinochloa crus-galli, ECHCG, read-out: damage to plant ECHCG (100=total damage; 0=no damage).
Where [3] appears, read: Ipomoea hederacea, IPOHE, read-out: damage to plant IPOHE (100=total damage; 0=no damage).
Setting [4] is: Setaria faberi, SETFA, read-out: damage to plant SETFA (100=total damage; 0=no damage).
[5] abbreviates: AMAPA, read-out: damage to plant AMAPA (100=total damage; 0=no damage).
The mark [6] stands for this setting: ZEAMX, read-out: damage to plant ZEAMX (100=total damage; 0=no damage).

Each structure is given as a SMILES string. Read-outs that look alike come from different tables or passages of the source.

As to `COC(=O)C(F)(F)c1c(Cl)cccc1OC` [Compound 2-65, Methyl 2-(2-chloro-6-methoxy-phenyl)-2,2-difluoro-acetate], the pest or weed control at 1000 g/ha with SETFA amounted to 0%; in the test with AMARE it was 50%; in the test with ECHCG it was 0%; with IPOHE it was 70%; in the test on weeds and/or crops (setting [1]), 70%; with weeds and/or crops (setting [2]), 40%. Further, the figures for the pest or weed control at 1000 g/ha in the test on weeds and/or crops (setting [3]) and in the test with weeds and/or crops (setting [4]) were 70% and 10%, respectively. For the same compound, the “evaluation (100=total damage to plant; 0=no damage to plant)” value is listed as 10 in the test with SOLNI and 0 in the test with LOLPE. For the same compound, the “damage to plant LOLPE (100=total damage; 0=no damage)” value in the test with weeds and/or crops is 0. Besides, in the test with weeds and/or crops, the “damage to plant SOLNI (100=total damage; 0=no damage)” value is 30.
As for `COc1cccc(Cl)c1C(F)(F)C(=O)O` [Compound 1-65, 2-(2-Chloro-6-methoxy-phenyl)-2,2-difluoro-acetic acid], the pest or weed control at 1000 g/ha was found to be 0% in the test on SETFA; 60% with AMARE; 0% in the test with ECHCG; 40% with IPOHE; 70% in the test with weeds and/or crops (setting [1]); 0% with weeds and/or crops (setting [2]). In addition, the figures for the pest or weed control at 1000 g/ha in the test on weeds and/or crops (setting [3]) and in the test on weeds and/or crops (setting [4]) were 70% and 0%, respectively. Besides, in the test on LOLPE, the “evaluation (100=total damage to plant; 0=no damage to plant)” value is on record as 0. Besides, the “damage to plant LOLPE (100=total damage; 0=no damage)” value in the test with weeds and/or crops was found to be 0.
For `COC(=O)C(F)(F)c1c(Cl)ccc2cc(Cl)cnc12` [Compound 2-418, Methyl 2-(3,7-dichloro-8-quinolyl)-2,2-difluoro-acetate], the pest or weed control at 1000 g/ha is 20% in the test with SETFA; 60% in the test on AMARE; 10% in the test on ECHCG; 50% in the test with IPOHE; 70% in the test with weeds and/or crops (setting [1]); 0% with weeds and/or crops (setting [2]). For the same compound, the pest or weed control at 1000 g/ha in the test on weeds and/or crops (setting [3]) is 80%; in the test on weeds and/or crops (setting [4]), 0%. In addition, in the test on LOLPE, the “evaluation (100=total damage to plant; 0=no damage to plant)” value was determined as 0. In addition, the “damage to plant LOLPE (100=total damage; 0=no damage)” value in the test with weeds and/or crops is 0.
Turning to `COc1c(Cl)ccc(Cl)c1C(F)(F)C(=O)O` [Compound 1-326, 2-(3,6-dichloro-2-methoxy-phenyl)-2,2-difluoro-acetic acid], the pest or weed control at 1000 g/ha in the test on SETFA came out at 10%; in the test with AMARE it was 50%; in the test with ECHCG it was 30%; in the test on IPOHE it was 20%; with weeds and/or crops (setting [1]), 80%; in the test on weeds and/or crops (setting [2]) it was 0%. The pest or weed control at 1000 g/ha came out at 80% in the test on weeds and/or crops (setting [3]) and 0% with weeds and/or crops (setting [4]). In the test on LOLPE, the “evaluation (100=total damage to plant; 0=no damage to plant)” value came out at 10. Further, the “damage to plant LOLPE (100=total damage; 0=no damage)” value with weeds and/or crops worked out at 0.
As to `O=C(O)C(F)(F)c1c(Cl)ccc2cc(Cl)cnc12` [Compound 1-418, 2-(3,7-Dichloro-8-quinolyl)-2,2-difluoro-acetic acid], the pest or weed control at 1000 g/ha in the test on SETFA was found to be 50%; in the test on AMARE, 30%; in the test on ECHCG, 20%; in the test with IPOHE it was 50%; in the test on weeds and/or crops (setting [1]) it was 50%; in the test with weeds and/or crops (setting [2]), 0%. Further, the pest or weed control at 1000 g/ha came to 40% in the test with weeds and/or crops (setting [3]) and 0% in the test on weeds and/or crops (setting [4]). The “evaluation (100=total damage to plant; 0=no damage to plant)” value in the test with SOLNI came out at 10; in the test on LOLPE, 0. Moreover, the “damage to plant LOLPE (100=total damage; 0=no damage)” value with weeds and/or crops is on record as 0. The “damage to plant SOLNI (100=total damage; 0=no damage)” value in the test with weeds and/or crops amounted to 90.
Regarding `Cc1c(C#N)cccc1C(F)(F)C(=O)O` [Compound 1-244, 2-(3-Cyano-2-methyl-phenyl)-2,2-difluoro-acetic acid], the pest or weed control at 1000 g/ha with SETFA is 90%; with AMAPA, 80%; with AMARE, 90%; in the test on ECHCG it was 50%; in the test with IPOHE it was 90%; in the test on weeds and/or crops (setting [5]), 90%. Also, the pest or weed control at 1000 g/ha worked out at 60% with weeds and/or crops (setting [6]); 90% in the test on weeds and/or crops (setting [1]); 60% in the test on weeds and/or crops (setting [2]); 70% in the test with weeds and/or crops (setting [3]); 70% in the test with weeds and/or crops (setting [4]). Also, the plant injury at 1000 g/ha in the test on ZEAMX was determined as 40%.
`O=C(O)C(F)(F)c1cccc(Cl)c1C1CC1` [Compound 1-428, 2-(3-Chloro-2-cyclopropyl-phenyl)-2,2-difluoro-acetic acid]: the pest or weed control at 1000 g/ha with SETFA was determined as 0%; in the test with AMAPA, 90%; in the test with AMARE, 80%; in the test with ECHCG, 0%; in the test on IPOHE it was 80%; in the test with weeds and/or crops (setting [5]), 90%. The pest or weed control at 1000 g/ha in the test with weeds and/or crops (setting [6]) amounted to 10%; in the test with weeds and/or crops (setting [1]), 90%; with weeds and/or crops (setting [2]), 10%; in the test with weeds and/or crops (setting [3]), 90%; with weeds and/or crops (setting [4]), 0%. Further, the plant injury at 1000 g/ha with ZEAMX was 0%.
On to `Cc1cccc(C(F)(F)C(=O)O)c1C#N` [Compound 1-462, 2-(2-Cyano-3-methyl-phenyl)-2,2-difluoro-acetic acid], for which the pest or weed control at 1000 g/ha in the test with SETFA came out at 0%; with AMAPA, 30%; in the test with AMARE, 50%; with ECHCG, 0%; in the test with IPOHE it was 40%; with weeds and/or crops (setting [5]), 80%. Besides, the pest or weed control at 1000 g/ha with weeds and/or crops (setting [6]) was 10%; with weeds and/or crops (setting [1]), 80%; in the test on weeds and/or crops (setting [2]), 0%; in the test with weeds and/or crops (setting [3]) it was 70%; in the test on weeds and/or crops (setting [4]), 20%. Moreover, in the test on ZEAMX, the plant injury at 1000 g/ha was 0%.
Consider `COC(=O)C(F)(F)c1c(Cl)ccc(Cl)c1OC` [Compound 2-326, methyl 2-(3,6-dichloro-2-methoxy-phenyl)-2,2-difluoro-acetate], for which the pest or weed control at 1000 g/ha is 10% in the test on SETFA; 40% with AMARE; 20% in the test on ECHCG; 40% in the test on IPOHE; 70% in the test on weeds and/or crops (setting [1]); 0% with weeds and/or crops (setting [2]). Further, the pest or weed control at 1000 g/ha worked out at 40% in the test on weeds and/or crops (setting [3]) and 0% in the test on weeds and/or crops (setting [4]). For the same compound, the “evaluation (100=total damage to plant; 0=no damage to plant)” value in the test on LOLPE came to 10. Moreover, the “damage to plant LOLPE (100=total damage; 0=no damage)” value in the test with weeds and/or crops turned out to be 0.
